What all share (assay type): in vivo
Assay [1] deals with cucumber powdery mildew (Sphaerotheca cucurbitae). The assay can be described thus: Efficacy test on cucumber powdery mildew, irrigation treatment (Test Example 11). As to conditions: concentration 500 ppm, cucumber (Sagami-hanjiro). The protocol:
An agent comprising the following compound listed in Table 2 (active ingredient A) and the compound listed in Table 6 (C18: active ingredient B), was prepared in accordance with the above Formulation Example. This agent was diluted with water to a predetermined concentration to obtain a test solution. 5 ml of the test solution was irrigated by a pipette to the close-to-ground part of cucumber seedlings at the 1 leaf stage (variety: Sagami-hanjiro), grown in a styrol cup with a diameter of 10 cm, and next day, the seedlings were transplanted to the to 4 cun pots. Then, after cultivation for 7 days in a glass greenhouse, to the first true leaf of the cucumber, a spore suspension (100,000 cfu/ml) of cucumber powdery mildew (Sphaerotheca cucurbitae) was inoculated by spraying. After 10 days in a glass greenhouse, the ratio of the formed lesion area occupying the inoculated leaves was measured, and the preventive value was calculated in accordance with the following formula. Preventive value=[1−(treated plot lesion area ratio/untreated plot lesion area ratio)]×100
(§1) Further, from the preventive value at each agent concentration, synergy was calculated by using the Colby method (Colby S. R. 1976, Weeds 15, 20-22).

Assay [2] has as its system cucumber gray mold fungus (Botrytis cinerea). The experiment in a line: Preventive test against gray mold on cucumber cotyledon leaves, spray treatment, preventive value and Colby expected value (Test Examples 1-4). As to conditions: single compound; for pest or weed control at 3 ppm / pest or weed control at 1 ppm: Botrytis cinerea, 72 h; for pest or weed control at 3 ppm: read-out: Preventive value. The gist of the method: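 Cucumber (Sagami-hanjiro) cotyledons sprayed with water-diluted formulations of ingredient A, B or mixtures, air-dried, detached, and drop-inoculated with Botrytis cinerea conidia mixed 1:1 with PDA. After 3 days at 20 °C, lesion area gave preventive value versus untreated; Colby expected value E=X+Y−XY/100 computed for mixtures.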

The test system of assay [3] is rice sheath blight fungus (Rhizoctonia solani). The assay can be described thus: Efficacy test on rice sheath blight, spray treatment and prevention test (Test Examples 5-6). As to conditions: single compound 250 ppm, lesion height. The procedure:
An agent comprising the following compound listed in Table 2 (active ingredient A) and the compound listed in Table 6 (C17: active ingredient B) as active ingredients, was prepared in accordance with the above Formulation Example. The agent was diluted with water to a predetermined concentration to obtain a test solution. Then, in a plastic pot of 90 cm^3, rice (Nipponbare) was seeded by 5 grains in one place, and to the grown seedlings in 4 seedling phase, the test solution was applied by a spray gun in an amount of 5 ml per pot, for treatment.
One day after the treatment, 1 g of mycelium flora of rice sheath blight fungus (Rhizoctonia solani) cultured in bran medium, was put by […] to a close-to-ground part of seedlings, and the pot was placed in a moist chamber set in temperature of 25° C. and humidity more than 95% RH for eight days. The height of the lesions which appeared in the highest position from the close-to-ground part (lesion height) was investigated, and the preventive value was calculated in accordance with the following formula. Preventive value=[1−(treated plot lesion height/untreated plot lesion height)]×100
Further, from the preventive value for each agent concentration, synergy was calculated by using the Colby method (Colby S. R. 1976, Weeds 15, 20-22).
Using the following compound listed in Table 2 (active ingredient A) and the compound listed in Table 6 (C17: active ingredient B) as active ingredients, a preventive test on rice sheath blight was conducted in accordance with the above Test Example 5.

Assay [4] deals with wheat glume blotch (Leptosphaeria nodorum). The experiment in a line: Efficacy test on wheat glume blotch, seed treatment (Test Example 9). As to conditions: single compound. The protocol:
An agent comprising the following compound listed in Table 2 (active ingredient A) and the compound listed in Table 11 (H35: active ingredient B) as active ingredients, was prepared in accordance with the above Formulation Example. This agent was diluted with water to a predetermined concentration to obtain a test solution. A predetermined amount of the test solution was put in a glass bottle of 5 ml, and 0.5 g (approximately 15 grains) of wheat seeds (variety: Haruyutaka) were added, stirred and air-dried. In each pot with a diameter of 7 cm having soil put therein, 3 grains were seeded and grown for 14 days. To seedlings of the wheat (variety: Haruyutaka) grown to a 1-leaf stage, a spore suspension (100,000 cfu/ml) of wheat glume blotch (Leptosphaeria nodorum) was spray-inoculated, and the pot was placed in a moist chamber set in temperature of 20° C. and humidity more than 95% RH for 48 hours. After placing the pot for 7 days in a glass greenhouse, the ratio of the formed lesion area occupying the inoculated leaves was measured, and the preventive value was calculated in accordance with the following formula. Preventive value=[1−(treated plot lesion area ratio/untreated plot lesion area ratio)]×100
as §1

The mark [5] stands for this setting: processing amount 5 mg/1 g seed.
[6] abbreviates: processing amount 10 mg/1 g seed.

Each structure is given as a SMILES string. Like-named read-outs stand apart in the source and are kept apart here.

Take `CC(C)O/N=C(/CNC(=O)c1ccccc1C(F)(F)F)c1ncc(Cl)cc1Cl` [Compound No. 4]: the Preventive value was 60 in assay [1]; 75 in assay [2] (Test Example 1, 3 ppm spray); 70 in assay [2] (Test Example 3, 3 ppm spray); 60 in assay [2] (Test Example 4, 3 ppm spray); 7 in assay [3] (Test Example 5); 70 in assay [4] (setting [5]). The Preventive value in assay [4] (setting [6]) is 75.

Turning to `COc1c(Cl)cnc(C(CNC(=O)c2ccccc2C(F)(F)F)=NOC(C)C)c1Cl` [Compound No. 9], the Preventive value came to 95 in assay [1]; 75 in assay [2] (Test Example 1, 1 ppm spray, cucumber cotyledon, 3 days at 20° C.); 70 in assay [2] (Test Example 3, 1 ppm spray); 72 in assay [2] (Test Example 4, 1 ppm spray); 10 in assay [3] (Test Example 6); 75 in assay [4] (setting [5]). The Preventive value in assay [4] (setting [6]) is reported as 77.

For `CC#Cc1cnc(/C(CNC(=O)c2cn(C)nc2C(F)F)=N\OC(C)C)c(Cl)c1` [Compound No. 20, (Z)—N-[2-[3-chloro-5-(1-propynyl)pyridin-2-yl]-2-(isopropoxyimino)ethyl]-3-difluoromethyl-1-methyl-1H-pyrazole-4-carboxamide], the Preventive value in assay [1] stood at 100; in assay [3] (Test Example 5) it was 0; in assay [4] (setting [5]), 90; in assay [4] (setting [6]), 99. The pest or weed control at 3 ppm in assay [2] (Test Example 1, 3 ppm spray) worked out at 63%; in assay [2] (Test Example 3, 3 ppm spray), 65%; in assay [2] (Test Example 4, 3 ppm spray) it was 65%.

For the compound `CC(C)O/N=C(/CNC(=O)c1cn(C)nc1C(F)F)c1ncc(C#CC2CC2)cc1Cl` [Compound No. 25, (Z)—N-[2-[3-chloro-5-(cyclopropylethynyl)pyridin-2-yl]-2-(isopropoxyimino)ethyl]-3-difluoromethyl-1-methyl-1H-pyrazole-4-carboxamide], the Preventive value turned out to be 100 in assay [1], 8 in assay [3] (Test Example 6), 83 in assay [4] (setting [5]) and 95 in assay [4] (setting [6]). Also, the pest or weed control at 1 ppm in assay [2] (Test Example 2, 1 ppm spray) amounted to 63%; in assay [2] (Test Example 3, 1 ppm spray) it was 75%; in assay [2] (Test Example 4, 1 ppm spray), 75%.

On to `CC(C)ON=C(CNC(=O)c1ccccc1C(F)(F)F)c1ncc(C(F)(F)F)cc1Cl` [compound 14], for which the Preventive value in assay [1] is reported as 22.5; in assay [2] (Test Example 1, 3 ppm spray), 75; in assay [2] (Test Example 3, 3 ppm spray) it was 75; in assay [2] (Test Example 4, 3 ppm spray) it was 65; in assay [3] (Test Example 5), 6; in assay [4] (setting [5]), 41. The Preventive value in assay [4] (setting [6]) was determined as 82.

With `CON=C(CNC(=O)c1cn(C)nc1C(F)F)c1ncc(C#CC(C)(C)C)cc1Cl` [compound 28], the Preventive value is 75 in assay [1]; 75 in assay [2] (Test Example 1, 3 ppm spray); 77 in assay [2] (Test Example 3, 3 ppm spray); 75 in assay [2] (Test Example 4, 3 ppm spray); 9 in assay [3] (Test Example 5); 77 in assay [4] (setting [5]). Also, the Preventive value in assay [4] (setting [6]) worked out at 88.

The values above are taken from patent publication US9974305B2, “Fungicidal or bactericidal composition, and method for controlling diseases” (NISSAN CHEMICAL INDUSTRIES, LTD., priority 2014, dated 2018).
